In ChEMBL document CHEMBL1201862, “PubChem BioAssay data set” (2004):
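Each compound was tested at five concentrations against cells in 96-well plates for 48 hours. Abbreviation: GI50, concentration required for 50% inhibition of growth.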 Active and inactive are the calls of the source. No stated cut-off is given here; in the data, active = GI50 up to about 1.1 µM and inactive = higher.

Columns and labels:
Experiment in all cases: NCI-60 cell line screen, 48 h
[1] = test system: OVCAR-3
[2] = test system: ACHN
[3] = test system: NCI-H522
[4] = test system: UO-31
[5] = test system: HCT-15
[6] = test system: HCT-116
[7] = test system: SN12C
[8] = test system: SK-MEL-5
[9] = test system: SK-MEL-2
[10] = test system: OVCAR-8
[11] = test system: EKVX
[12] = test system: HT-29
[13] = test system: SW-620
[14] = test system: A549
[15] = test system: M14
[16] = test system: RPMI-8226

Row | Structure (SMILES) | GI50 [1] | GI50 [2] | GI50 [3] | GI50 [4] | GI50 [5] [µM] | GI50 [6] | GI50 [7] | GI50 [8] | GI50 [9] | GI50 [10] | GI50 [11] | GI50 [12] | GI50 [13] | GI50 [14] | GI50 [15] | GI50 [16]
1 | O=[N+]([O-])C1(CO)COC(CCc2ccccc2)OC1 (stereo unspecified) | > 100 µM (inactive) | > 100 µM (inactive) | > 100 µM (inactive) | > 100 µM (inactive) | > 100 | > 100 µM (inactive) | > 100 µM (inactive) | > 100 µM (inactive) | > 100 µM (inactive) | > 100 µM (inactive) | > 100 µM (inactive) | > 100 µM (inactive) | > 100 µM (inactive) | > 100 µM (inactive) | > 100 µM (inactive) | 
2 | CC(O)c1ccc(C(O)/C(=N\NC(=O)c2ccncc2)c2nc3ccc([N+](=O)[O-])cc3nc2O)cc1 (stereo unspecified) | > 100 µM (inactive) | 42.4 µM (inactive) | 19.8 µM (inactive) | > 100 µM (inactive) | 34.8 | > 100 µM (inactive) | > 100 µM (inactive) | > 100 µM (inactive) |  | > 100 µM (inactive) |  | 96.2 µM (inactive) | > 100 µM (inactive) | > 100 µM (inactive) | > 100 µM (inactive) | > 100 µM (inactive)
3 | CCOC(=O)C1CCCCN1C(=O)OCc1ccccc1 (stereo unspecified) | > 100 µM (inactive) | > 100 µM (inactive) | > 100 µM (inactive) | 99.8 µM (inactive) | > 100 | > 100 µM (inactive) | > 100 µM (inactive) | > 100 µM (inactive) | > 100 µM (inactive) | > 100 µM (inactive) | > 100 µM (inactive) | > 100 µM (inactive) | > 100 µM (inactive) | > 100 µM (inactive) | > 100 µM (inactive) | 
4 | N#CC(/C(=N\NC(=O)c1ccncc1)C(=O)Nc1ccc([N+](=O)[O-])cc1[N+](=O)[O-])c1nc(-c2ccc(Br)cc2)cs1 (stereo unspecified) | > 100 µM (inactive) | > 100 µM (inactive) |  | > 100 µM (inactive) | > 100 | > 100 µM (inactive) |  | > 100 µM (inactive) | > 100 µM (inactive) | > 100 µM (inactive) | > 100 µM (inactive) |  | > 100 µM (inactive) | > 100 µM (inactive) | > 100 µM (inactive) | > 100 µM (inactive)
5 | CC(=O)Nc1ccccc1-c1nc2ccccc2nc1-c1ccccc1 | > 100 µM (inactive) | > 100 µM (inactive) |  | 54.7 µM (inactive) | > 100 | > 100 µM (inactive) | > 100 µM (inactive) |  | > 100 µM (inactive) | > 100 µM (inactive) | > 100 µM (inactive) | > 100 µM (inactive) | > 100 µM (inactive) | > 100 µM (inactive) | > 100 µM (inactive) | > 100 µM (inactive)
6 | COc1c(Br)cc(Br)c(OC)c1-c1ccc[nH]1 | > 100 µM (inactive) | > 100 µM (inactive) | 55.1 µM (inactive) | 43.3 µM (inactive) | 55.8 | 97.3 µM (inactive) |  | > 100 µM (inactive) | 45.3 µM (inactive) | > 100 µM (inactive) | > 100 µM (inactive) | 38.8 µM (inactive) | 35 µM (inactive) | > 100 µM (inactive) | 75.7 µM (inactive) | 80.4 µM (inactive)
7 | CC1(C2COC(=O)C2)SCCCS1 (stereo unspecified) | > 100 µM (inactive) | > 100 µM (inactive) | 2.79 µM (inactive) | 14.2 µM (inactive) | > 100 | > 100 µM (inactive) | > 100 µM (inactive) | > 100 µM (inactive) | > 100 µM (inactive) | > 100 µM (inactive) | > 100 µM (inactive) | > 100 µM (inactive) | > 100 µM (inactive) | > 100 µM (inactive) | > 100 µM (inactive) | 
